Assay results published in PMC5048394, “Development and substrate specificity screening of an in vivo biosensor for the detection of biomass derived aromatic chemical building blocks” (Chemical Communications (Cambridge, England), 2016).
Read-outs that look alike come from different tables or passages of the source.

Experiments:
PLC biosensor [1] = test: PLC biosensor eGFP expression in E. coli K strain (DH10B, Top10F'); type: cell-based
Protocol: (§1) Cells were centrifuged, washed and re-suspended with PBS buffer. The expression output was then analyzed by monitoring the fluorescence normalised to cell density (RFU/OD600) in a multimode plate reader (Methods, ESI ^†).
(§2) The sequences containing the PLC, PPC and PferB promoters, a RBS, and a Hexa-Histidine tag, flanked by SphI/NdeI were synthetized (GeneART, ThermoFisher). The sequences were enzyme restricted with SphI/NdeI and cloned in pET44eGFP,2 upstream to the eGFP gene, replacing the T7 promoter region generating respectively, the pET44PLCeGFP, pET44PPCeGFP and pET44PferBeGFP vectors.
(§3) The FerCA DNA sequence containing the ferA and ferC genes, individually flanked by a PLacI promoter and an rrn_B1 terminator, was synthetized by GeneARTTM (ThermoFisher).
(§4) The construct was cloned in a p15 plasmid flanked by NaeI/KasI restriction sites generating […]
(§5) the p15FerCA vector. […]
(§6) Biosensors Performance and Screening Methods
(§7) Reporter controls and the biosensor systems PLC, PPC and PferB were respectively generated by transformation of pET44PLCeGFP, pET44PPCeGFP and pET44PFerBeGFP vectors alone or with p15FerCA in BL21 and DH10B chemically competent E. coli cells. A single colony of each system was grown in LB media supplemented with antibiotics at 37 °C with shaking at 180rpm for 16 hours. Cultures were diluted (1:100) in fresh LB media with appropriate antibiotics, re-incubated at 37 °C with shaking until OD ~0.6 and transferred (450 μL) to multi- […]
(§8) μM and 1000 μM. Induction plates were incubated at 37 °C, with shaking at 1000 RPM (Stuart microtitre plate shaker incubator) for 3 hours. Cells were harvested by centrifugation, washed twice and re-suspended with PBS buffer. Expression output was analyzed by monitoring the fluorescence normalised to cell density (RFU/OD) in a multimode plate reader. […]
(§9) Data Processing and Curve Fitting
(§10) Biosensor signal output (eGFP expression) was measured as Relative Fluorescence Units (RFU) and normalised to cell density (OD600). The background auto-fluorescence of E. coli was subtracted from RFU/OD and was normalised (%) to the pLC biosensor response curve to ferulic acid for each experiment. The normalised data was plotted and fitted with a dose-response curve using the Levenberg Marquardt logistic growth/sigmoidal algorithm, using the Origin 2015 (OriginLab, Northampton MA USA) program. The biomass screening data was […]

PPC biosensor [2] = test: PPC biosensor eGFP expression in E. coli K strain (DH10B, Top10F'); type: cell-based
Protocol: as §1, §2, §3, §4, §5, §6, §7, §8, §9, §10

PLC biosensor [3] = test: microbe, parasite or virus in culture; type: cell-based, E. coli BL21
Protocol: as §1, §2, §3, §4, §5, §6, §7, §8
Compounds for screening were selected using cinnamic acid as a reference structure. The 58 selected compounds were tested with the PLC biosensor in E. coli BL21 cells. The substrate screening assays were performed using concentrations ranging from 0.32 μM to 1000 μM, as described for Ferulic acid. […]
as §9, §10

[4] = system: ferA knock-out (AKO) PLC and PferB systems; test: FerA knock-out (AKO) system FA induction assay; type: cell-based; conditions: ferA knock-out (AKO) strains, E. coli BL21
From the text: as §2, §3
The construct was cloned in a p15 plasmid flanked by NaeI/KasI restriction sites generating the p15FerCA vector. The ferA gene was removed by restriction digestion of two XbaI flanking sites. The remaining backbone with ferC was re-circularized to originate the p15FerC vector, and the obtained plasmid was sequenced to confirm identity.
as §6
Reporter controls and the biosensor systems PLC, PPC and PferB were respectively generated by transformation of pET44PLCeGFP, pET44PPCeGFP and pET44PFerBeGFP vectors alone or with p15FerCA in BL21 and DH10B chemically competent E. coli cells. […] Expression output was analyzed by monitoring the fluorescence normalised to cell density (RFU/OD) in a multimode plate reader. […]

PPC biosensor [5] = test: PPC biosensor eGFP expression (RFU/OD600) in E. coli BL21; type: cell-based
Protocol: as §1, §2, §3, §4, §5, §6, §7, §8, §9, §10

PferB biosensor [6] = test: PferB biosensor eGFP expression (RFU/OD600) in E. coli BL21; type: cell-based
Protocol: as §1, §2, §3, §4, §5, §6, §7, §8, §9, §10

PferB biosensor [7] = test: PferB biosensor eGFP expression in E. coli K strain (DH10B, Top10F'); type: cell-based
Protocol: as §1, §2, §3, §4, §5, §6, §7, §8, §9, §10

[8] = PLC biosensor, E. coli K strain (DH10B)
[9] = ferulic acid dose response, PLC biosensor, Top10F' (DH10B)
[10] = ferulic acid dose response, PPC biosensor, Top10F' (DH10B)
[11] = Escherichia coli, BL21, ferulic acid dose response, PLC biosensor, E. coli BL21
[12] = Escherichia coli, BL21, substrate screening, PLC biosensor, E. coli BL21
[13] = ferulic acid, PLC biosensor, E. coli BL21, text
[14] = ferulic acid dose response, PPC biosensor, E. coli BL21
[15] = ferulic acid dose response, PferB biosensor, E. coli BL21
[16] = ferulic acid dose response, PferB biosensor, Top10F' (DH10B)

**Q.** For `COc1cc(/C=C/C(=O)O)ccc1O` [compound 1, trans-Ferulic acid], which EC50 (PLC biosensor [1]; Escherichia coli) is on record?
**A.** 22.8 ± 5.2 µM

**Q.** What about the EC90 (PLC biosensor [1]; Escherichia coli) of the same compound?
**A.** 83 µM

**Q.** What about the De-repression (PLC biosensor [1]; [8]) of the same compound?
**A.** incomplete de-repression

**Q.** What about the Relative signal range (PLC biosensor [1]; [8]) of the same compound?
**A.** ~19 fold

**Q.** And the “Sensing range (EC90/EC10)” value (PLC biosensor [1]; [8])?
**A.** 13 fold

**Q.** What about the EC10 (PLC biosensor [1]; [9]) of the same compound?
**A.** 6.3 µM

**Q.** What about the “Ebasal (fitting curve)” value (PLC biosensor [1]; [9]) of the same compound?
**A.** 6.1 RFU/OD

**Q.** And the “Emax (fitting curve)” value (PLC biosensor [1]; [9])?
**A.** 100.0 RFU/OD

**Q.** What about the “Sensing range (EC90/EC10)” value (PLC biosensor [1]; [9]) of the same compound?
**A.** 13.3

**Q.** What about the “Signal range (max/min)” value (PLC biosensor [1]; [9]) of the same compound?
**A.** 19.2

**Q.** And the “p (fitting curve)” value (PLC biosensor [1]; [9])?
**A.** 1.7

**Q.** What about the EC50 (PPC biosensor [2]; Escherichia coli) of the same compound?
**A.** 10.4 µM

**Q.** What about the EC90 (PPC biosensor [2]; Escherichia coli) of the same compound?
**A.** 33.3 µM

**Q.** And the De-repression (PPC biosensor [2]; PPC biosensor, E. coli K strain (DH10B))?
**A.** complete de-repression

**Q.** And the EC10 (PPC biosensor [2]; [10])?
**A.** 3.3 µM

**Q.** And the “Ebasal (fitting curve)” value (PPC biosensor [2]; [10])?
**A.** 4.7 RFU/OD

**Q.** And the “Emax (fitting curve)” value (PPC biosensor [2]; [10])?
**A.** 44.7 RFU/OD

**Q.** And the “Sensing range (EC90/EC10)” value (PPC biosensor [2]; [10])?
**A.** 10.2

**Q.** And the “Signal range (max/min)” value (PPC biosensor [2]; [10])?
**A.** 12.4

**Q.** And the “p (fitting curve)” value (PPC biosensor [2]; [10])?
**A.** 1.9

**Q.** What about the EC10 (PLC biosensor [3]; [11]) of the same compound?
**A.** 5.6 µM

**Q.** What about the EC50 (PLC biosensor [3]; [11]) of the same compound?
**A.** 20.9 ± 4.2 µM

**Q.** And the EC90 (PLC biosensor [3]; [11])?
**A.** 77.4 µM

**Q.** And the Emax (PLC biosensor [3]; Escherichia coli, BL21, read-out: Induction)?
**A.** > 70%

**Q.** What about the maximal fold induction (PLC biosensor [3]; Escherichia coli, BL21, read-out: Signal range (max/min), ferulic acid dose response, PLC biosensor, E. coli BL21) of the same compound?
**A.** 22.8

**Q.** What about the maximal fold induction (PLC biosensor [3]; Escherichia coli, BL21, read-out: Signal range (max/min), substrate screening, PLC biosensor, E. coli BL21) of the same compound?
**A.** 26.2

**Q.** What about the EC10 (PLC biosensor [3]; [12]) of the same compound?
**A.** 3.9 µM

**Q.** And the EC50 (PLC biosensor [3]; [12])?
**A.** 15.3 ± 0.9 µM

**Q.** What about the EC90 (PLC biosensor [3]; [12]) of the same compound?
**A.** 59.5 µM

**Q.** And the Saturation concentration (PLC biosensor [3]; ferulic acid dose response, PLC biosensor, E. coli BL21)?
**A.** ≥ 100 µM

**Q.** What about the “De-repression (incomplete), % of the PLC reporter” value (PLC biosensor [3]; ferulic acid, PLC biosensor, E. coli BL21) of the same compound?
**A.** ~85%

**Q.** And the Sensing range (PLC biosensor [3]; [13])?
**A.** 13 fold

**Q.** What about the Signal range (PLC biosensor [3]; [13]) of the same compound?
**A.** ~23 fold

**Q.** And the Induction (PLC biosensor [3]; substrate screening, PLC biosensor, E. coli BL21, 0.32–1000 μM)?
**A.** H (high output signals, and hence good efficacy (>70%))

**Q.** What about the Signal read-out range (PLC biosensor [3]; substrate screening, PLC biosensor, E. coli BL21, text) of the same compound?
**A.** > 25 fold

**Q.** What about the “De-repression phenotype upon addition to growth media” value [4] of the same compound?
**A.** lacked the de-repression phenotype

**Q.** What about the EC50 (PPC biosensor [5]; Escherichia coli, BL21) of the same compound?
**A.** 11.2 ± 1.1 µM

**Q.** And the EC90 (PPC biosensor [5]; Escherichia coli, BL21)?
**A.** 38 µM

**Q.** And the “Concentration for complete de-repression” value (PPC biosensor [5]; [14])?
**A.** ≥ 40 µM

**Q.** And the EC10 (PPC biosensor [5]; [14])?
**A.** 3.3 µM

**Q.** What about the “Ebasal (fitting curve)” value (PPC biosensor [5]; [14]) of the same compound?
**A.** 4.2 RFU/OD

**Q.** And the “Emax (fitting curve)” value (PPC biosensor [5]; [14])?
**A.** 46.6 RFU/OD

**Q.** What about the “Sensing range (EC90/EC10)” value (PPC biosensor [5]; [14]) of the same compound?
**A.** 11.5

**Q.** And the “Signal range (max/min)” value (PPC biosensor [5]; [14])?
**A.** 10.4

**Q.** And the “p (fitting curve)” value (PPC biosensor [5]; [14])?
**A.** 1.8

**Q.** And the EC50 (PferB biosensor [6]; Escherichia coli, BL21)?
**A.** 60.5 ± 2.3 µM

**Q.** What about the EC90 (PferB biosensor [6]; Escherichia coli, BL21) of the same compound?
**A.** 191 µM

**Q.** What about the EC10 (PferB biosensor [6]; [15]) of the same compound?
**A.** 19.2 µM

**Q.** What about the “Ebasal (fitting curve)” value (PferB biosensor [6]; [15]) of the same compound?
**A.** 3.7 RFU/OD

**Q.** And the “Emax (fitting curve)” value (PferB biosensor [6]; [15])?
**A.** 17.0 RFU/OD

**Q.** What about the “Sensing range (EC90/EC10)” value (PferB biosensor [6]; [15]) of the same compound?
**A.** 9.9

**Q.** What about the “Signal range (max/min)” value (PferB biosensor [6]; [15]) of the same compound?
**A.** 5.0

**Q.** And the “p (fitting curve)” value (PferB biosensor [6]; [15])?
**A.** 1.9

**Q.** What about the De-repression (PferB biosensor [6]; ferulic acid, PferB biosensor, E. coli BL21) of the same compound?
**A.** effectively de-repressed

**Q.** What about the EC50 (PferB biosensor [7]; Escherichia coli) of the same compound?
**A.** 79.6 µM

**Q.** What about the EC90 (PferB biosensor [7]; Escherichia coli) of the same compound?
**A.** 276 µM

**Q.** And the De-repression (PferB biosensor [7]; PferB biosensor, E. coli K strain (DH10B))?
**A.** complete de-repression

**Q.** What about the EC10 (PferB biosensor [7]; [16]) of the same compound?
**A.** 22.9 µM

**Q.** What about the “Ebasal (fitting curve)” value (PferB biosensor [7]; [16]) of the same compound?
**A.** 4.3 RFU/OD

**Q.** What about the “Emax (fitting curve)” value (PferB biosensor [7]; [16]) of the same compound?
**A.** 20.5 RFU/OD

**Q.** What about the “Sensing range (EC90/EC10)” value (PferB biosensor [7]; [16]) of the same compound?
**A.** 12.0

**Q.** What about the “Signal range (max/min)” value (PferB biosensor [7]; [16]) of the same compound?
**A.** 4.7

**Q.** What about the “p (fitting curve)” value (PferB biosensor [7]; [16]) of the same compound?
**A.** 1.8
